Test results reported in ChEMBL document CHEMBL3991601, “The target landscape of clinical kinase drugs” (Science, 2017).
Activity calls are given as the source filed them. Cut-off read from the data, not from the text of the source, for most assays here: actives have a measured Kd and inactives only a lower limit.

Assays:
[1] = target: Tyrosine-protein kinase JAK1 (Homo sapiens, UniProt P23458)
[2] = target: T1, Cyclin-G-associated kinase (Homo sapiens, UniProt O14976)
T1 sequence (O14976 whole entry): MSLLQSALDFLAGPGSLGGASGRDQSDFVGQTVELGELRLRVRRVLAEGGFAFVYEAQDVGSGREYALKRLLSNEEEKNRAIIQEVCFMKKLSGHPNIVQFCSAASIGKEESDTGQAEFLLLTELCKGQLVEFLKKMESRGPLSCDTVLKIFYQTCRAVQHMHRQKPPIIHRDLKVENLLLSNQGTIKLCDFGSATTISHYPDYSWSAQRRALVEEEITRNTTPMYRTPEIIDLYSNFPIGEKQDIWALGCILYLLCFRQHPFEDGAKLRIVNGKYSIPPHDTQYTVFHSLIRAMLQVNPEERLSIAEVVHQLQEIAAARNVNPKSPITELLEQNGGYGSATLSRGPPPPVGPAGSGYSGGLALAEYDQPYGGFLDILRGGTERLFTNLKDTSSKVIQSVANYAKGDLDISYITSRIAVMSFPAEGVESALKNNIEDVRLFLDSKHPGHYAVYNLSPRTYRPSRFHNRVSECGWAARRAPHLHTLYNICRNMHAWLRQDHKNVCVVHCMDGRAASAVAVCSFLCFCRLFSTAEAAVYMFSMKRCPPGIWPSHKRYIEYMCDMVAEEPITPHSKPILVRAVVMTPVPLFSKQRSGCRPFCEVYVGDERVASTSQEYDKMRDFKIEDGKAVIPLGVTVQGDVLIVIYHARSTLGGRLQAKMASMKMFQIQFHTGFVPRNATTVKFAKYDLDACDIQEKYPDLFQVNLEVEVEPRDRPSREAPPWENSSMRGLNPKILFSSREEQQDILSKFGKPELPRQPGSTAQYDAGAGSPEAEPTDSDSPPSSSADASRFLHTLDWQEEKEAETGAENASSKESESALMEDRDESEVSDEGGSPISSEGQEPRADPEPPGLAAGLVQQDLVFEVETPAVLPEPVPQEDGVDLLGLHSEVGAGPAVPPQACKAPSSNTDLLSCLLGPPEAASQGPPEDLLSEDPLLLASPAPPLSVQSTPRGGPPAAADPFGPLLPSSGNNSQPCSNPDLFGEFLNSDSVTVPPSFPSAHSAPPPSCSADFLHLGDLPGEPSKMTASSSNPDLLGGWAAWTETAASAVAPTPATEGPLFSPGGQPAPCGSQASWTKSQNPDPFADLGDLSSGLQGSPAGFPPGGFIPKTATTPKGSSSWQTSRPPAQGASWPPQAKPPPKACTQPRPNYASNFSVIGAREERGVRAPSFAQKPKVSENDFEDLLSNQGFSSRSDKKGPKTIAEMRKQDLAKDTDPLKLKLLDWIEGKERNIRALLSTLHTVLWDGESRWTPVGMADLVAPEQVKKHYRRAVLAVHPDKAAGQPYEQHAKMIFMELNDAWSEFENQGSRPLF

[3] = target: Ephrin type-A receptor 5 (Homo sapiens, UniProt P54756)
[4] = target: Casein kinase II subunit alpha' (Homo sapiens, UniProt P19784)
[5] = target: Deoxycytidine kinase (Homo sapiens, UniProt P27707)
[6] = target: T2, Phosphorylase b kinase gamma catalytic chain, liver/testis isoform (Homo sapiens, UniProt P15735)
T2 sequence (P15735 whole entry): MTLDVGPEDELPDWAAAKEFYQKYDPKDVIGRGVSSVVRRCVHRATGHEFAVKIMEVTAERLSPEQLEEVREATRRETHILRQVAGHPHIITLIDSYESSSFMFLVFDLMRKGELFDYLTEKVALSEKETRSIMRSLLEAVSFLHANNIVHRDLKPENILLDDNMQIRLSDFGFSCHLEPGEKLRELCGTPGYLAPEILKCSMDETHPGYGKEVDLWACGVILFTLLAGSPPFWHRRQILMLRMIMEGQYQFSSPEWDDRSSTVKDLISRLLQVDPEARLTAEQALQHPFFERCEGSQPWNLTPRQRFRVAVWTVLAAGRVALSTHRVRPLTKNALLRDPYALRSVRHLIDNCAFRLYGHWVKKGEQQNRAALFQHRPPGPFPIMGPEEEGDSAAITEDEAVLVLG

[7] = target: T3, Mitogen-activated protein kinase kinase kinase kinase 2 (Homo sapiens, UniProt Q12851)
T3 sequence (Q12851 whole entry): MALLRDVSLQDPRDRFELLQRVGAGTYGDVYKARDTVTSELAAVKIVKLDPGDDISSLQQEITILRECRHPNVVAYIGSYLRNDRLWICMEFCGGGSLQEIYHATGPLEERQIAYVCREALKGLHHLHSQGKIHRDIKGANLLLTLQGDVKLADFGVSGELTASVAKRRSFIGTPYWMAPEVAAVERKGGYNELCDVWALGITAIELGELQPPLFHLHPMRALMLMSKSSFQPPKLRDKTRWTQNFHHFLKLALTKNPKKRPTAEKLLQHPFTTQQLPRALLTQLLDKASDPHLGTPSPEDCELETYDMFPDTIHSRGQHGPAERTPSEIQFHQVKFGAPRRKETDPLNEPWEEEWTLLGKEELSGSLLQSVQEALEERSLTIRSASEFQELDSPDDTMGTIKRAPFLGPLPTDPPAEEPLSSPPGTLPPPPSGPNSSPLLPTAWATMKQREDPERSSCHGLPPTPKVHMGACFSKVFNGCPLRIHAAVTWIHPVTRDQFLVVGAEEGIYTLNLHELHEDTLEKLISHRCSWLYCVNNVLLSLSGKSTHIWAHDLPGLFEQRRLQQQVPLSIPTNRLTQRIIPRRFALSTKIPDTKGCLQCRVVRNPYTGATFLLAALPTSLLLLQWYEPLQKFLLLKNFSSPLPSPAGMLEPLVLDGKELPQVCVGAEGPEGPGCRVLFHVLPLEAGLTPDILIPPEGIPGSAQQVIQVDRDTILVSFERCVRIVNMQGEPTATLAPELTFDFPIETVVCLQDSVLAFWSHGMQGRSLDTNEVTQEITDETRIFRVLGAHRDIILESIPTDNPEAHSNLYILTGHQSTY
Note: in the data inactive means no Kd found up to 30 µM.

Casein kinase II subunit alpha', sequence (P19784 whole entry): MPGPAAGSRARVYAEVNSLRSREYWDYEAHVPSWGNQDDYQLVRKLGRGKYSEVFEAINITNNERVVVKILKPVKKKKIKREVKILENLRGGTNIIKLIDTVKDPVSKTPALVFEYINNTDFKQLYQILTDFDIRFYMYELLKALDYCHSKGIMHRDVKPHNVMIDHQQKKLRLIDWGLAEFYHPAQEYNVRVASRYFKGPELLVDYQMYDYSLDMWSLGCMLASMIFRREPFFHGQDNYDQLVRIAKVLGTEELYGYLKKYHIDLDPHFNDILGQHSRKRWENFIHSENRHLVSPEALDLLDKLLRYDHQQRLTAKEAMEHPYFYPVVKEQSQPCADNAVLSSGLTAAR
Deoxycytidine kinase, sequence (P27707 whole entry, canonical isoform): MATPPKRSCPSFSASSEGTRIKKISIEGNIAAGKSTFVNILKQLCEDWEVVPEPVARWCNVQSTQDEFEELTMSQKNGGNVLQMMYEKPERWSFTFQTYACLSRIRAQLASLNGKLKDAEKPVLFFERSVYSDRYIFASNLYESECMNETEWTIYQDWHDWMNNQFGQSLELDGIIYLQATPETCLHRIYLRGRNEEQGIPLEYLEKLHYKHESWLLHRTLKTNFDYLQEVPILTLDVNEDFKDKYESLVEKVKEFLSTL
Tyrosine-protein kinase JAK1, sequence (P23458 whole entry): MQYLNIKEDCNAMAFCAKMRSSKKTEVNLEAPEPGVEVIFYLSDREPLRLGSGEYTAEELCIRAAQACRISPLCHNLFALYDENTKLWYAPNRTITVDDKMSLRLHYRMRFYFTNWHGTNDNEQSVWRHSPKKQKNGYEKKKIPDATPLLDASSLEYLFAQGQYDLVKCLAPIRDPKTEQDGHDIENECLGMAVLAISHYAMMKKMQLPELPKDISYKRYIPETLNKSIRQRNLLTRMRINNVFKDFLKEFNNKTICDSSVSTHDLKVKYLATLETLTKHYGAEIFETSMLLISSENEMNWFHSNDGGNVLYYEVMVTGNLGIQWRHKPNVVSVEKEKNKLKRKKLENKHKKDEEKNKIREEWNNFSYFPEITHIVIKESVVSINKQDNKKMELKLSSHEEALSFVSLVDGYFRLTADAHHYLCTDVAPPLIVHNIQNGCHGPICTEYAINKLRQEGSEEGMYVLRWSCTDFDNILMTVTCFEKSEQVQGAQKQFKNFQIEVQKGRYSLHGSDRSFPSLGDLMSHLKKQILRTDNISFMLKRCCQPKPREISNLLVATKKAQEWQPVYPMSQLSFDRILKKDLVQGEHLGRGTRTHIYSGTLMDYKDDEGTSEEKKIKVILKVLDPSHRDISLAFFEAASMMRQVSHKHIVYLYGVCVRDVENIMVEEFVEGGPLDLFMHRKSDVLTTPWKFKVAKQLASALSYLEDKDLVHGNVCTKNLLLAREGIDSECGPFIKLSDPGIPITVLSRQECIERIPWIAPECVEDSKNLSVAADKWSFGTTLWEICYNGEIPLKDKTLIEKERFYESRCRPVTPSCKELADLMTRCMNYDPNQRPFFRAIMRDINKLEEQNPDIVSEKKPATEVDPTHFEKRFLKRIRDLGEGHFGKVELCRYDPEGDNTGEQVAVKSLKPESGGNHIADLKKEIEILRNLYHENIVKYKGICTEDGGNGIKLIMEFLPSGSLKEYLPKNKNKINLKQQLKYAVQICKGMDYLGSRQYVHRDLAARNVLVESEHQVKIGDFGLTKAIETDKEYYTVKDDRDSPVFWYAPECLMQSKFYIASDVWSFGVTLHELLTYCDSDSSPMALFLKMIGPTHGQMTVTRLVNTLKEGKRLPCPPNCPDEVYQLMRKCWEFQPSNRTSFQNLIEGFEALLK
Ephrin type-A receptor 5, sequence (P54756 whole entry): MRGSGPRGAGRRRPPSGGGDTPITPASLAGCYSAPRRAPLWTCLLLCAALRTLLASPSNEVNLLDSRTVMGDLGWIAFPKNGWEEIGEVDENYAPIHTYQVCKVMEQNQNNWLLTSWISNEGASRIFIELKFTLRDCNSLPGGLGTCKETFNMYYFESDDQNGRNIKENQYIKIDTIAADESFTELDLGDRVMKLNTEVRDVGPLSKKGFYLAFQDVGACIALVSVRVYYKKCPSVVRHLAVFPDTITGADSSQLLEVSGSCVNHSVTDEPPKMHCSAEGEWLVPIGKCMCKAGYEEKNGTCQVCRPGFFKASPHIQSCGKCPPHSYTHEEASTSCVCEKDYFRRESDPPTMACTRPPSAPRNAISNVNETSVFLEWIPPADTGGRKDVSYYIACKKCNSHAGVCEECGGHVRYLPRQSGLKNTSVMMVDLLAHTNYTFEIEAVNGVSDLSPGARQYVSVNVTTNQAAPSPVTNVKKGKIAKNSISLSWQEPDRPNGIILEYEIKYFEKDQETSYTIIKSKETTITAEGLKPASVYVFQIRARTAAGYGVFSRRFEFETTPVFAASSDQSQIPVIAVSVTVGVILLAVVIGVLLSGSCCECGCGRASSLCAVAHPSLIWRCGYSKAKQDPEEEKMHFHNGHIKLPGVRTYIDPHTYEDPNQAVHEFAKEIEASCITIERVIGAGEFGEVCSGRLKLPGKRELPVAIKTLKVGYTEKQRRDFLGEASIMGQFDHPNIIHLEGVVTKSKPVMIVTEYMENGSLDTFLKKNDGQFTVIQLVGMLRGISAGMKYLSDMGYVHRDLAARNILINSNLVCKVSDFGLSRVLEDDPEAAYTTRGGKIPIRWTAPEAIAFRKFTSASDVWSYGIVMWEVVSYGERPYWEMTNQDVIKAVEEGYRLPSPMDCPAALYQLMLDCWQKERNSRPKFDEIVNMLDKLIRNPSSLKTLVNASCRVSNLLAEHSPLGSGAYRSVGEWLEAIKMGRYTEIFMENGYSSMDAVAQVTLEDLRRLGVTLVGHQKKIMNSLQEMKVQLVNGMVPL

Row | Structure (SMILES) | Kd [1] | Kd [2] | Kd [3] | Kd [4] | Kd [5] | Kd [6] | Kd [7]
1 | CCc1cnn2c(NCc3ccc[n+]([O-])c3)cc(N3CCCC[C@H]3CCO)nc12 [DINACICLIB] | > 30 µM (inactive) | > 30 µM (inactive) | > 30 µM (inactive) | > 30 µM (inactive) | > 30 µM (inactive) | > 30 µM (inactive) | –
2 | Cn1ncc(Cl)c1-c1cc(C(=O)N[C@H](CN)Cc2cccc(F)c2)sc1Cl [AFURESERTIB] | > 30 µM (inactive) | > 30 µM (inactive) | > 30 µM (inactive) | > 30 µM (inactive) | > 30 µM (inactive) | > 30 µM (inactive) | > 30 µM (inactive)
3 | CC[C@H](Nc1ncnc2[nH]cnc12)c1nc2cccc(F)c2c(=O)n1-c1ccccc1 [IDELALISIB] | > 30 µM (inactive) | > 30 µM (inactive) | > 30 µM (inactive) | > 30 µM (inactive) | > 30 µM (inactive) | > 30 µM (inactive) | > 30 µM (inactive)
4 | O=C(O)[C@]1(Cc2cccc(Nc3nccs3)n2)CC[C@@H](Oc2cccc(Cl)c2F)CC1 [MK-5108] | > 30 µM (inactive) | > 30 µM (inactive) | > 30 µM (inactive) | > 30 µM (inactive) | > 30 µM (inactive) | > 30 µM (inactive) | 1.85 µM (active)
5 | CN(C)C(=O)c1cc2cnc(Nc3ccc(N4CCNCC4)cn3)nc2n1C1CCCC1 [RIBOCICLIB] | > 30 µM (inactive) | 0.658 µM (active) | > 30 µM (inactive) | > 30 µM (inactive) | > 30 µM (inactive) | > 30 µM (inactive) | > 30 µM (inactive)
6 | C[C@@H]1CN(Cc2ccc(F)cc2)[C@@H](C)CN1C(=O)c1cc2c(C(=O)C(=O)N(C)C)cn(C)c2cc1Cl [TALMAPIMOD] | > 30 µM (inactive) | > 30 µM (inactive) | > 30 µM (inactive) | > 30 µM (inactive) | > 30 µM (inactive) | > 30 µM (inactive) | > 30 µM (inactive)
7 | O=C1NC(=O)/C(=C/c2ccc3nccc(-c4ccncc4)c3c2)S1 [GSK-1059615] | > 30 µM (inactive) | 7.44 µM (active) | > 30 µM (inactive) | 0.017 µM (active) | > 30 µM (inactive) | > 30 µM (inactive) | > 30 µM (inactive)
8 | Cn1cc(-c2ccc3nnc(C(F)(F)c4ccc5ncccc5c4)n3n2)cn1 [JNJ-38877605] | > 30 µM (inactive) | > 30 µM (inactive) | > 30 µM (inactive) | > 30 µM (inactive) | > 30 µM (inactive) | > 30 µM (inactive) | > 30 µM (inactive)
9 | COc1cc2nccc(Oc3ccc(NC(=O)NC4CC4)c(Cl)c3)c2cc1C(N)=O [LENVATINIB] | > 30 µM (inactive) | – | > 30 µM (inactive) | > 30 µM (inactive) | > 30 µM (inactive) | > 30 µM (inactive) | 0.578 µM (active)
10 | OCCn1cc(-c2cnc3nnn(Cc4ccc5ncccc5c4)c3n2)cn1 [PF-04217903] | > 30 µM (inactive) | > 30 µM (inactive) | > 30 µM (inactive) | > 30 µM (inactive) | > 30 µM (inactive) | > 30 µM (inactive) | –
11 | CN1CCN(c2ccc3nc(-c4c(N)c5c(F)cccc5[nH]c4=O)[nH]c3c2)CC1 [DOVITINIB] | – | – | – | – | > 30 µM (inactive) | – | –
12 | Cc1cc(Nc2cc(N3CCN(C)CC3)nc(/C=C/c3ccccc3)n2)n[nH]1 [ENMD-2076] | > 30 µM (inactive) | > 30 µM (inactive) | > 30 µM (inactive) | 4.41 µM (active) | > 30 µM (inactive) | – | –
13 | N[C@@H]1CCCN(c2c(/C=C3\SC(=O)NC3=O)cccc2-c2ccccc2)C1 | > 30 µM (inactive) | > 30 µM (inactive) | – | 3.02 µM (active) | > 30 µM (inactive) | > 30 µM (inactive) | > 30 µM (inactive)
14 | CCn1c(-c2nonc2N)nc2c(C#CC(C)(C)O)ncc(OC[C@H]3CCCNC3)c21 [GSK-690693] | – | – | – | – | > 30 µM (inactive) | – | –
15 | O=C(Nc1cccc(Cl)c1)Nc1ncc(CCNc2ncnc3ccsc23)s1 [SNS-314] | > 30 µM (inactive) | > 30 µM (inactive) | > 30 µM (inactive) | > 30 µM (inactive) | > 30 µM (inactive) | – | –
16 | Cc1cn(-c2cc(NC(=O)c3ccc(C)c(Nc4nccc(-c5cccnc5)n4)c3)cc(C(F)(F)F)c2)cn1 [NILOTINIB] | – | – | – | – | > 30 µM (inactive) | – | –
17 | Nc1nc(N)c2nc(-c3cccc(O)c3)c(-c3cccc(O)c3)nc2n1 [TG100-115] | – | > 30 µM (inactive) | – | > 30 µM (inactive) | 0.012 µM (active) | – | –
18 | CN1CCC(COc2cnc(-c3cccc(Cn4nc(-c5cccc(C#N)c5)ccc4=O)c3)nc2)CC1 [TEPOTINIB] | – | > 30 µM (inactive) | > 30 µM (inactive) | > 30 µM (inactive) | > 30 µM (inactive) | > 30 µM (inactive) | > 30 µM (inactive)
19 | CCS(=O)(=O)N1CC(CC#N)(n2cc(-c3ncnc4[nH]ccc34)cn2)C1 [BARICITINIB] | – | – | > 30 µM (inactive) | > 30 µM (inactive) | > 30 µM (inactive) | > 30 µM (inactive) | > 30 µM (inactive)
20 | Cc1nc(N)sc1-c1ccnc(Nc2ccc(N3CCOCC3)cc2)n1 [CYC-116] | 5.39 µM (active) | 0.196 µM (active) | – | 0.015 µM (active) | > 30 µM (inactive) | – | –
21 | CCCS(=O)(=O)Nc1ccc(F)c(C(=O)c2c[nH]c3ncc(-c4ccc(Cl)cc4)cc23)c1F [VEMURAFENIB] | > 30 µM (inactive) | > 30 µM (inactive) | > 30 µM (inactive) | > 30 µM (inactive) | > 30 µM (inactive) | > 30 µM (inactive) | –
22 | C=CC(=O)N1CCC(Oc2cc3c(Nc4ccc(Cl)c(Cl)c4F)ncnc3cc2OC)CC1 [POZIOTINIB] | > 30 µM (inactive) | > 30 µM (inactive) | > 30 µM (inactive) | – | > 30 µM (inactive) | > 30 µM (inactive) | > 30 µM (inactive)
